In ChEMBL document CHEMBL6134843, “HDAC11 Inhibition as a Potential Therapeutic Strategy for AML: Target Identification, Lead Discovery, Antitumor Potency, and Mechanism Investigation” (J Med Chem, 2025):
Activity calls are given as the source filed them. The rule behind the calls is not given here.

Legend:
[1] = tested on: Acute myeloid leukemic cell; assay: Induction of ferroptosis in human Acute myeloid leukemic cells assessed as increase in ACSL4 level by Western blot analysis; assay type: functional, cell-based
U-937 [2] = assay: Antitumor activity against human U-937 cells assessed as cell growth inhibition incubated for 2 days by CCK-8 assay; conditions: U-937, 48 h
U-937 [3] = assay: Antiproliferative activity in human U-937 cells assessed as suppression of cell growth at 10 uM in presence of Zinc protoporphyrin by trypan blue staining based analysis; assay type: functional
[4] = AUC (0 to infinity) in ICR(CD-1) mouse at 5 mg/kg, iv treated up to 24 hrs by LC-MS/MS analysis; assay type: ADME, organism-based; conditions: in vivo
U-937 [5] = assay: Upregulation of Nrf2 transcription level in human U-937 cells by RNA-seq analysis; assay type: functional, cell-based
[6] = Volume of distribution at steady state in ICR(CD-1) mouse at 5 mg/kg, iv treated up to 24 hrs by LC-MS/MS analysis; assay type: ADME, organism-based; conditions: in vivo, read-out: Vdss
U-937 [7] = assay: Effect on TP53 gene expression in human U-937 cells at 10 uM incubated for 48 hrs by RT-qPCR; assay type: functional, cell-based
U-937 [8] = assay: Induction of ferroptosis in human U-937 cells assessed as increase in ROS generation at 5 uM incubated for 48 hrs in presence of ferrostatin-1 by DCFH-DA staining based flow cytometry analysis; assay type: functional, cell-based
OCI-AML2 [9] = assay: Induction of cell differentiation in human OCI-AML2 cells assessed as increase in CD11b expression at 5 uM incubated for 48 hrs by flow cytometry analysis; assay type: functional, cell-based
MLL-AF9 = assay: Antitumor activity against mouse MLL-AF9 cells allografted in female C57BL/6 mouse model assessed as reduction in hepatomegaly at 50 mg/kg, ip administered once daily for 23 days; assay type: functional, organism-based; conditions: time 23.0 day
[10] = Antitumor activity against mouse MLL-AF9 cells allografted in female C57BL/6 mouse model assessed as GFP positive leukemic cells in peripheral blood at 50 mg/kg, ip administered once daily for 26 days by FITC staining based analysis (reference value: 30.6 %); assay type: functional; conditions: time 26 day
[11] = tested on: Acute myeloid leukemic cell; assay: Induction of ferroptosis in human Acute myeloid leukemic cells assessed as […] of ACSL4 mRNA level by RT-qPCR analysis; assay type: functional, cell-based
U-937 [12] = assay: Induction of ferroptosis in human U-937 cells assessed as increase in lipid peroxidation accumulation at 5 uM incubated for 48 hrs in presence of ferrostatin-1 by C11-BODIPY 581/591 staining based flow cytometry analysis; assay type: functional, cell-based
Histone deacetylase 4 = Histone deacetylase 4 (Homo sapiens, UniProt P56524); assay: Inhibition of N-terminal GST-tagged C-terminal His-tagged human HDAC4 (627 to 1084 end residues) expressed in baculovirus expression system in Sf9 cells using Boc-Lys-(trifluoroacetyl)-AMC as substrate preincubated with enzyme for 1 hr followed by substrate addition and measured after 30 mins by fluorescence analysis
Histone deacetylase 4, sequence (P56524 whole entry): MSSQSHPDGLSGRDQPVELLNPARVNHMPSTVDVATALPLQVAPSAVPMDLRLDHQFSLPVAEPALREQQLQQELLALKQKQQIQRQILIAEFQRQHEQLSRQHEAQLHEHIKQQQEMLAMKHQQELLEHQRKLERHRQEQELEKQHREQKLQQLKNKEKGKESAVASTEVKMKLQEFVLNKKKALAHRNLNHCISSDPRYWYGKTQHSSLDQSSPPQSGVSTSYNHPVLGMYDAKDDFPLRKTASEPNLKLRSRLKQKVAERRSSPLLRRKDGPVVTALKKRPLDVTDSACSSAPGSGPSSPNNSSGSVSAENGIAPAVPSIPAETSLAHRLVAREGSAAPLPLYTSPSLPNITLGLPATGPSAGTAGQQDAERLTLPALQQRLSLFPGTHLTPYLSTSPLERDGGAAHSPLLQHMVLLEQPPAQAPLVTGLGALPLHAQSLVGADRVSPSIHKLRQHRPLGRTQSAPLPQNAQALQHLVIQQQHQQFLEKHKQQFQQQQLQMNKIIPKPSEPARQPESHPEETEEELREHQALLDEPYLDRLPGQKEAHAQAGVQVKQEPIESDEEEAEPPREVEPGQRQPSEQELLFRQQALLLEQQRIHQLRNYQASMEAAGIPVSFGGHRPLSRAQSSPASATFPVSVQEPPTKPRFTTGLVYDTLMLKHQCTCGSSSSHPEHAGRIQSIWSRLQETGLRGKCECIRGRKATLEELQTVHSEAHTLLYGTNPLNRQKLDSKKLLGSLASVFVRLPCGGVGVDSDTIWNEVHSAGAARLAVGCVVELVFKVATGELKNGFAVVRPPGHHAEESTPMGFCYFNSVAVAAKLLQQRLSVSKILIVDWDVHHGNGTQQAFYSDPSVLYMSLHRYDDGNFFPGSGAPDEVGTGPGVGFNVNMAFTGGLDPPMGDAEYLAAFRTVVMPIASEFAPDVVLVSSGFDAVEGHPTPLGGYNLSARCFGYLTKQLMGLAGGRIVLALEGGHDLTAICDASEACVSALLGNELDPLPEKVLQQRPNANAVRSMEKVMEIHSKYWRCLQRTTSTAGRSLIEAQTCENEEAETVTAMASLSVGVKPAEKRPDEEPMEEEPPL

[13] = tested on: Acute myeloid leukemic cell; assay: Induction of ferroptosis in human Acute myeloid leukemic cells assessed as upregulation of TF protein level at 2.5 to 10 uM by Western blot analysis; assay type: functional, cell-based; conditions: dose 2.5-10 µM
OCI-AML2 [14] = assay: Induction of ferroptosis in human OCI-AML2 cells assessed as increase in lipid peroxidation level incubated for 48 hrs by C11-BODIPY 581/591 staining based flow cytometry analysis; assay type: functional, cell-based; conditions: dose 2.5-10 µM
[15] = tested on: Acute myeloid leukemic cell; assay: Induction of ferroptosis in human Acute myeloid leukemic cells assessed as upregulation of HMOX1 protein level at 2.5 to 10 uM by Western blot analysis; assay type: functional, cell-based; conditions: dose 2.5-10 µM
[16] = tested on: Acute myeloid leukemic cell; assay: Induction of ferroptosis in human Acute myeloid leukemic cells assessed as upregulation of FTL mRNA level by RT-qPCR analysis; assay type: functional, cell-based

In the case of `O=C(NO)c1cccc2[nH]c(C#Cc3cccc(C(F)(F)F)c3)cc12`, the Activity [1] is reported as “Active”, the IC50 (U-937 [2]) is reported as 9.66 µM and the Activity (U-937 [3]) is reported as “inactive”. The AUC(0-inf) [4] was 625 ng·h/mL, the Activity (U-937 [5]) was “inactive” and the Vd [6] was 10.2 L/kg. The Activity (U-937 [7]) was “Active”, the Activity (U-937 [8]) was “inactive” and the Activity (OCI-AML2 [9]) was “Active”. For the same molecule, the Activity (MLL-AF9) was “Active”, the Activity [10] was 11.2% and the Activity [11] was “Active”. For the same molecule, the Activity (U-937 [12]) was “inactive”, the IC50 (Histone deacetylase 4) was greater than 100 µM and the Activity [13] was “Active”. For the same molecule, the Activity (OCI-AML2 [14]) was “Dose-dependent-effect”, the Activity [15] was “Active” and the Activity [16] was “Active”.
